Measured values published in US4888329A, “Antiulcer composition” (Senju Pharmaceutical Co., Ltd., priority 1987, dated 1989).

What was measured:
[1] = tested on: indomethacin-induced ulcer; assay: Effect on indomethacin-induced ulcer (Experimental Example 3); format: in vivo, male Donryu rats; conditions: disodium salt; for Length of ulcer: 30 min before indomethacin, mean ± S.E., 7 h after indomethacin, control 30.8 ± 5.97; for % Inhibition: length of ulcer vs control
Description: Male Donryu rats weighing 180-200 g were fasted for 24 hours and, then, a suspension of indomethacin in 1% carboxymethylcellulose (30 mg/[…]) was subcutaneously injected. The test drug was orally administered 30 minutes before indomethacin loading. Ten minutes before sacrifice at 7 hours after indomethacin loading, 3 ml/kg 5% Pontamine Sky Blue was intravenously injected. After sacrifice, the stomach was excised and fixed in 1% aqueous formaldehyde. Then, the length (mm) of the gastric ulcer induced was measured.
*5% gum arabic solution, 5 ml/kg
In the above table, each value in the column corresponding to the length of ulcer is the mean ± S.E. and the figure in parentheses denotes the number of cases.

[2] = tested on: rat stress ulcer; assay: Effect on rat stress ulcer, intraperitoneal (Experimental Example 2); format: in vivo, male Wistar rats; conditions: 10 mg/5ml/kg intraperitoneal, disodium salt
Description: The test drug was aministered intraperitoneally to male Wistar rats weighing about 150 g. After 30 minutes, each rat was fixed to a board with tying thread and immersed in water at 23° C. for 7 hours for stress loading. Ten minutes before water immersion, 3 ml/kg of 5% Pontamine Sky Blue was intravenously administered.
After this 7-hour water immersion, the rats were removed from the water and the stomach was excised and fixed in 1% aqueous formaldehyde. Then, the length (mm) of the gastric ulcer induced was measured.
(§1) *physiological saline, 5 ml/kg
In the above table, each value in the column corresponding to the length of ulcer is the mean ± S.E. and the figure in the parentheses denotes the number of cases.

[3] = Toxicity in rat (LD50); conditions: in vivo
Source text: For instance, the toxicity in rat of disodium salt of phosphoric acid diester of L-ascorbic acid and DL-α-tocopherol was observed as follows: […]

[4] = tested on: rat stress ulcer; assay: Effect on rat stress ulcer, intraperitoneal (Experimental Example 4); format: in vivo, male Wistar rats; conditions: for Length of ulcer: mean ± S.E., 7 h water immersion at 23° C., control 31.7 ± 3.64; for % Inhibition: length of ulcer vs control
Description: The test drugs were administered intraperitoneally to male Wistar rats weighing about 130-190 g and after 30 minutes, the four limbs of each rat were fixed to a board with tying thread. The rats were then immersed in water at 23° C. for 7 hours for stress loading. Ten minutes before water immersion, 3 ml/kg of 5% Pontamine Sky Blue was intravenously injected. After 7-hour water immersion, the rats were removed from the water and stomach was excised and fixed in 1% aqueous formaldehyde. Then length of gastric ulcer induced was measured.
as §1
In the above table, each value in the column corresponding to length of ulcer is the mean ± S.E. and the figure in the parentheses denotes the number of cases.

[5] = tested on: rat stress ulcer; assay: Effect on rat stress ulcer, oral (Experimental Example 1); format: in vivo, male Wistar rats; conditions: disodium salt; for Length of ulcer: mean ± S.E., 5 h water immersion at 23° C., control 25.5 ± 4.29; for % Inhibition: length of ulcer vs control, 5 h water immersion
Description: The test drug was administered orally to male Wistar rats weighing 230-270 g and after 30 minutes, the four limbs of each rat were fixed to a board with tying thread. The rats were then immersed in water at 23° C. for 5 hours for stress loading. Ten minutes before water immersion, 3 ml/kg of 5% Pontamine Sky Blue was intravenously injected. After this 5-hour water immersion, the rats were removed from the water and the stomach was excised and fixed in 1% aqueous formaldehyde. Then, the length of the gastric ulcer induced was measured.
*Control: 5% gum arabic solution, 5 ml/kg
In the above table, each value in the column corresponding to length of ulcer is the mean ± S.E. (standard error) and the figure in parentheses denotes the number of the cases.

Row | SMILES | Length of ulcer ([1]; 300 mg/5 ml/kg oral, n=8) [mm] | Length of ulcer ([1]; 1000 mg/5 ml/kg oral, n=9) [mm] | % Inhibition ([1]; 300 mg/5 ml/kg oral) [%] | % Inhibition ([1]; 1000 mg/5 ml/kg oral) [%] | Length of ulcer ([2]; mean ± S.E., n=6, 7 h water immersion at 23° C., control 34.3 ± 4.76) [mm] | % Inhibition ([2]; length of ulcer vs control, 7 h water immersion) [%] | LD50 ([3]; po, per os) [mg/kg] | LD50 ([3]; sc, subcutaneous administration) [mg/kg] | Length of ulcer ([4]; 10 mg/5 ml/kg intraperitoneal, disodium salt, n=10) [mm] | Length of ulcer ([4]; 30 mg/5 ml/kg intraperitoneal, disodium salt, n=5) [mm] | % Inhibition ([4]; 10 mg/5 ml/kg intraperitoneal, disodium salt) [%] | % Inhibition ([4]; 30 mg/5 ml/kg intraperitoneal, disodium salt) [%] | Length of ulcer ([5]; 100 mg/5ml/kg oral, n=5) [mm] | Length of ulcer ([5]; 1000 mg/5ml/kg oral, n=6) [mm] | % Inhibition ([5]; 100 mg/5ml/kg oral) [%] | % Inhibition ([5]; 1000 mg/5ml/kg oral) [%] | Length of ulcer ([4]; 200 mg/5 ml/kg intraperitoneal, n=5) [mm] | % Inhibition ([4]; 200 mg/5 ml/kg intraperitoneal) [%]
1 | Cc1c(C)c2c(c(C)c1OP(=O)(O)OC1=C(O)[C@@H]([C@@H](O)CO)OC1=O)CCC(C)(CCCC(C)CCCC(C)CCCC(C)C)O2 (mixture of isomers) [α-EPC, phosphoric acid diester of L-ascorbic acid and DL-α-tocopherol] | 20.4 ± 3.72 | 3.5 ± 1.54 | 33.8 | 88.6 | 7.7 ± 6.00 | 77.6 | > 10000 | 793 | 8.5 ± 4.06 | 2.8 ± 1.27 | 73.2 | 91.2 | 19.4 ± 6.91 | 10.3 ± 3.51 | 23.9 | 59.6 | – | –
2 | CN/C(=N/CCSCc1nc[nH]c1C)NC#N [Cimetidine, reference compound] | – | – | – | – | – | – | – | – | – | – | – | – | – | – | – | – | 7.4 ± 7.16 | 76.7
